Laboratory results taken from patent US20020155192A1, “Yeast transport isoforms” (priority 2000, published 2002).
Like-named read-outs stand apart in the source and are kept apart here.

What was measured:
Odc1p = biological target: T1, Odc1p (Saccharomyces cerevisiae, UniProt Q03028); assay: Effect of inhibitors and external compounds on the [14C]oxoglutarate/oxoglutarate exchange by proteoliposomes reconstituted with Odc1p; format: biochemical; conditions: for Inhibition (%) of [14C]oxoglutarate/oxoglutarate exchange: 20 mM internal oxoglutarate, 0.4 mM [14C]oxoglutarate, 45 seconds, inhibitors 4 mM, except mercurials 10 μM, carboxyatractyloside 0.1 mM, N-ethylmaleimide and α-cyanocinnamate 2 mM; for inhibition of [14C]oxoglutarate/oxoglutarate exchange (in words): Table III
T1 construct: made in house; host or cells: S. cerevisiae odc1Δodc2Δ (YPH499 background) carrying pYES2-based pODC1; purified from mitochondria on Ni-NTA agarose
T1 sequence (Q03028 1-310): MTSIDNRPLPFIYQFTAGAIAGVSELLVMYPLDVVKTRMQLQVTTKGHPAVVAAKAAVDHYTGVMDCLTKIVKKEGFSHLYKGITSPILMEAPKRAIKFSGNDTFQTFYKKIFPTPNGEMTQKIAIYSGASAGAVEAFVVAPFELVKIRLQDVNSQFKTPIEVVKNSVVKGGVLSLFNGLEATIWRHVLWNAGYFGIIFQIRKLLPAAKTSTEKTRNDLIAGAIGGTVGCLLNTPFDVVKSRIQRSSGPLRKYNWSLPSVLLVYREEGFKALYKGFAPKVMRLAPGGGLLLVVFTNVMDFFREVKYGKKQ
Protocol: FIG. 5. Effect of dicarboxylates and 2-oxodicarboxylates with different carbon chain length on the rate of [^14C]oxoglutarate uptake into proteoliposomes reconstituted with recombinant Odc1p. Proteoliposomes were preloaded with 20 mM oxoglutarate and reconstituted with recombinant Odc1p. Transport was initiated by the addition of 0.4 mM [^14C]oxoglutarate and terminated after 45 seconds. Oxalate, malonate, succinate, glutarate, adipate, pimelate, suberate (▪) and the corresponding 2-oxoacids (●) were added simultaneously with [1^4C]oxoglutarate at 4.0 mM concentration.
(§1) Reconstitution of the ODC proteins into liposomes—Purified ODC proteins were reconstituted by cyclic removal of the detergent with a hydrophobic column (13). The composition of the initial mixture used for reconstitution was: 200 μl of purified isoform (0.3-0.4 μg of protein), 70 μl of 10% Triton X-114, 100 μl of 10% phospholipids in the form of sonicated liposomes, 20 mM oxoglutarate (except where otherwise indicated), 10 mM Pipes (pH 7.0), 0.7 mg of cardiolipin (Sigma) and water to a final volume of 700 μl. These components were mixed thoroughly, and the mixture was recycled 13 times through an Amberlite column (Supelco) (3.0 cm×0.5 cm) preequilibrated with a buffer containing 10 mM Pipes (pH 7.0) and with the substrate at the same concentration as in the starting mixture. All operations were performed at 4° C., except the passages through Amberlite, which were carried out at room temperature.
(§2) External substrate was removed from proteoliposomes on a Sephadex G-75 column preequilibrated with buffer F (50 mM NaCl and 10 mM PIPES, pH 7.0). Transport at 25° C. was started by adding [^14C]oxoglutarate (unless otherwise indicated) to the proteoliposomes, and terminated by addition of 30 mM pyridoxal 5′-phosphate and 10 mM bathophenanthroline (the “inhibitor-stop” method (13)). In controls, inhibitors were added with the labelled substrate. The external radioactivity was removed on Sephadex G-75 and the internal radioactivity was measured. […] The initial rate of transport was calculated in mmol/min per g protein from the time course of isotope equilibration (13). Various other transport activities were also assayed by the inhibitor-stop method. For efflux measurements, the internal substrate pool of the proteoliposomes was made radioactive by carrier-mediated exchange equilibration (13) with 0.1 mM [^14C]oxoglutarate added at high specific radioactivity. After 60 min, the residual external radioactivity was removed by passing the proteoliposomes again through a column of Sephadex G-75. Efflux was started by adding unlabelled external substrate or buffer F alone and terminated by adding the inhibitors indicated above.
(§3) In addition, the ability of non-radioactive potential substrates to inhibit the oxoglutarate/oxoglutarate exchange was examined.
Proteoliposomes were preloaded internally with 20 mM oxoglutarate and transport was initiated by the addition of 0.4 mM [^14C]oxoglutarate.

Odc2p = biological target: T2, Odc2p (Saccharomyces cerevisiae, UniProt Q99297); assay: Effect of inhibitors and external compounds on the [14C]oxoglutarate/oxoglutarate exchange by proteoliposomes reconstituted with Odc2p; format: biochemical; conditions: for Inhibition (%) of [14C]oxoglutarate/oxoglutarate exchange: 20 mM internal oxoglutarate, 0.4 mM [14C]oxoglutarate, 45 seconds, inhibitors 4 mM, except mercurials 10 μM, carboxyatractyloside 0.1 mM, N-ethylmaleimide and α-cyanocinnamate 2 mM; for inhibition of [14C]oxoglutarate/oxoglutarate exchange (in words): Table III
T2 construct: made in house; host or cells: S. cerevisiae odc1Δodc2Δ (YPH499 background) carrying pYES2-based pODC2; purified from mitochondria on Ni-NTA agarose
T2 sequence (Q99297 1-307): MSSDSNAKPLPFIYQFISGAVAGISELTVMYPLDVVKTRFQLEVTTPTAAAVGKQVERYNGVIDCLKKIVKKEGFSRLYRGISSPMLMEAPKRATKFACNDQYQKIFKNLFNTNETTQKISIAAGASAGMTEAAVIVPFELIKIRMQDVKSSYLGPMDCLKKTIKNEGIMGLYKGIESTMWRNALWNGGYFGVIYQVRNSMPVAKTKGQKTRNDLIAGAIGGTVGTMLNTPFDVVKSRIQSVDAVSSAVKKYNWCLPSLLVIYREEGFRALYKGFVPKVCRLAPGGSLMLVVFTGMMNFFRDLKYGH
Protocol: as §1, §2, §3
Proteoliposomes were preloaded internally with 20 mM oxoglutarate and transport was initiated by the addition of 0.4 mM [^14C]oxoglutarate. The incubation time was 45 seconds. Thiol reagents and α-cyanocinnamate were added 2 min before the labelled substrate; the other inhibitors and external substrates were added together with [^14C]oxoglutarate. The final concentration of the inhibitors was 4 mM, except for mercurials (10 μM), carboxyatractyloside (0.1 mM), N-ethylmaleimide and α-cyanocinnamate (2 mM).

[1] = Odc1p, added with 0.4 mM [14C]oxoglutarate, 4.0 mM in FIG. 5, partly data not shown

Row | Molecule | effect of non-radioactive potential substrates on the rate of oxoglutarate uptake (in words) (Odc1p; [1]) | effect of non-radioactive potential substrates on the rate of oxoglutarate uptake (in words) (Odc2p; Odc2p, data not shown) | Inhibition (%) of [14C]oxoglutarate/oxoglutarate exchange (Odc1p; Odc1p) | inhibition of [14C]oxoglutarate/oxoglutarate exchange (in words) (Odc1p; Odc1p) | Inhibition (%) of [14C]oxoglutarate/oxoglutarate exchange (Odc2p; Odc2p) | inhibition of [14C]oxoglutarate/oxoglutarate exchange (in words) (Odc2p; Odc2p) | further results
1 | N=C(N)NCCC[C@H](N)C(=O)O [arginine] |  |  |  |  |  |  | effect of non-radioactive potential substrates on the rate of oxoglutarate uptake (in words) (Odc1p): no effect; effect of non-radioactive potential substrates on the rate of oxoglutarate uptake (in words) (Odc2p): no effect
2 | O=C(O)C(O)C(=O)O [tartronate] | completely ineffective | completely ineffective |  |  |  |  | 
3 | C[C@H](N)C(=O)O [alanine] | no effect | no effect |  |  |  |  | 
4 | N[C@@H](Cc1c[nH]cn1)C(=O)O [histidine] | no effect | no effect |  |  |  |  | 
5 | NCC(=O)O [glycine] | no effect | no effect |  |  |  |  | 
6 | CC(C)[C@H](N)C(=O)O [valine] | no effect | no effect |  |  |  |  | 
7 | C[C@@H](O)[C@H](N)C(=O)O [threonine] | no effect | no effect |  |  |  |  | 
8 | [Cl][Hg][Cl] [HgCl2, mercuric chloride] |  |  | 100% | inhibited strongly | 98% | inhibited strongly | 
9 | CCN1C(=O)C=CC1=O [N-Ethylmaleimide] |  |  | 65% | inhibited considerably | 43% | inhibited considerably | 
10 | COC(CNC(=O)c1ccccc1OCC(=O)O)[CH2][Hg][OH] (stereo not shown) [Mersalyl] |  |  |  | inhibited strongly | 100% | inhibited strongly | 
11 | NC(C(=O)O)C(O)C(=O)O (racemic) [DL-Threo-hydroxyaspartate] | no affect | no affect |  |  |  |  | 
12 | O=C(O)c1cccc(C(=O)O)c1C(=O)O [1,2,3-Benzenetricarboxylate] |  |  | 41% | rather mild inhibitory effect | 37% | rather mild inhibitory effect | 
13 | O=C(O)[C@@H](O)[C@H](O)C(=O)O [D-tartrate] | more efficiently than succinate | more efficiently than succinate |  |  |  |  | 
14 | O=C(O)CC(O)C(=O)O (stereo not shown) [malate] |  |  |  |  |  |  | increase of the extent of inhibition of oxoglutarate uptake with respect to the corresponding dicarboxylate (Odc1p; Odc1p, C4 hydroxydicarboxylate versus C4 dicarboxylate, not shown): about 10 fold; increase of the extent of inhibition of oxoglutarate uptake with respect to the corresponding dicarboxylate (Odc2p; Odc2p, C4 hydroxydicarboxylate versus C4 dicarboxylate, not shown): about 10 fold
15 | hydroxyglutarate |  |  |  |  |  |  | effect of non-radioactive potential substrates on the rate of oxoglutarate uptake (in words) (Odc1p): slightly less effective than glutarate; effect of non-radioactive potential substrates on the rate of oxoglutarate uptake (in words) (Odc2p): slightly less effective than glutarate
16 | NC(=O)C[C@H](N)C(=O)O [asparagine] | no effect | no effect |  |  |  |  | 
17 | NCCCC[C@H](N)C(=O)O [lysine] | no effect | no effect |  |  |  |  | 
18 | CC(=O)CCCC(=O)O [5-oxohexanoate] |  |  |  |  |  |  | effect of oxomonocarboxylates on the rate of uptake of 0.4 mM oxoglutarate (in words) (Odc1p; Odc1p, 8 mM, 20 times greater than the substrate, data not shown): did not influence; effect of oxomonocarboxylates on the rate of uptake of 0.4 mM oxoglutarate (in words) (Odc2p; Odc2p, 8 mM, 20 times greater than the substrate, data not shown): did not influence
19 | O=C(O)CC(C(=O)O)c1ccccc1 (stereo not shown) [Phenylsuccinate] |  |  | 23% | rather poorly | 22% | rather poorly | 
20 | N#C/C(=C\c1ccccc1)C(=O)O [α-Cyanocinnamate] |  |  | 86% | inhibited strongly | 80% | inhibited strongly | 
21 | O=S(=O)(O)c1cc[c]([Hg][Cl])cc1 [p-Chloromercuriphenylsulfonate] |  |  | 98% | inhibited strongly | 100% | inhibited strongly | 
22 | N[C@@H](CO)C(=O)O [serine] | no effect | no effect |  |  |  |  | 
23 | CCCCC(C(=O)O)C(=O)O [Butylmalonate] |  |  | 118% | rather poorly | 25% | rather poorly | 
